Experimental data: paper PMC9389462, “Small molecule MMRi62 targets MDM4 for degradation and induces leukemic cell apoptosis regardless of p53 status” (Frontiers in Oncology, 2022)

Target: T1, MDM4 (Homo sapiens, UniProt O15151+Q00987)
T1 construct: RING domain (MDM2-MDM4 RING heterodimer, pETDuet, E. coli); with MDM2 (RING domain)
Experiment: microscale thermophoresis on preformed, dye-labelled MDM2-MDM4 RING heterodimer
Format: binding

T1 sequence (O15151 416-490 limits assumed): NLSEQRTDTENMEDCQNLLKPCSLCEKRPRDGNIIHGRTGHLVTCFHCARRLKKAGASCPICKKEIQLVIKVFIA
T1 sequence (Q00987 430-491 limits assumed): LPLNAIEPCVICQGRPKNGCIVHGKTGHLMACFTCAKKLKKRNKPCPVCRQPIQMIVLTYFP

Kd	Compound
~140 nM	Oc1c(C(Nc2ccccn2)c2cccc(Cl)c2Cl)ccc2cccnc12 (racemic) [MMRi62]
~896 nM	O=C(O)c1ccc(C(Nc2ccccn2)c2cc(Cl)c3cccnc3c2O)cc1 (racemic) [MMRi67]
